# Measurements published in patent publication US20250277012A1 (Protagonist Therapeutics, Inc., priority 2021, published 2025).
# Positions of bridges follow the written chain, without caps; N, C: chain ends. Non-standard residues stand in square brackets, D forms with d. Residues, ends and D or L forms follow the SMILES beside them. Groups on a side chain read outwards from the residue. *: point of attachment. X1 = C[N+](C)(CCNC(=O)CCCCCCCCCCCCCCCCC(=O)O)CC(=O)*; C18 diacid = O=C(O)CCCCCCCCCCCCCCCCC(=O)*; Dip = N[C@H](C(=O)O)C(c1ccccc1)c1ccccc1; Pro(3R-OH) = O=C(O)[C@H]1NCC[C@H]1O; Palmitoyl = CCCCCCCCCCCCCCCC(=O)*; NMeQ = CN[C@@H](CCC(N)=O)C(=O)O; β3hF = N[C@H](CC(=O)O)Cc1ccccc1; NMeK = CN[C@@H](CCCCN)C(=O)O; Isovaleryl = CC(C)CC(=O)*; dDap = NC[C@@H](N)C(=O)O; Dap = NC[C@H](N)C(=O)O; AEEA = NCCOCCOCC(=O)O; Ahx = NCCCCCC(=O)O
# Molecular target: T1, ferroportin (Homo sapiens, UniProt Q9NP59)
# T1 sequence (Q9NP59 1-571): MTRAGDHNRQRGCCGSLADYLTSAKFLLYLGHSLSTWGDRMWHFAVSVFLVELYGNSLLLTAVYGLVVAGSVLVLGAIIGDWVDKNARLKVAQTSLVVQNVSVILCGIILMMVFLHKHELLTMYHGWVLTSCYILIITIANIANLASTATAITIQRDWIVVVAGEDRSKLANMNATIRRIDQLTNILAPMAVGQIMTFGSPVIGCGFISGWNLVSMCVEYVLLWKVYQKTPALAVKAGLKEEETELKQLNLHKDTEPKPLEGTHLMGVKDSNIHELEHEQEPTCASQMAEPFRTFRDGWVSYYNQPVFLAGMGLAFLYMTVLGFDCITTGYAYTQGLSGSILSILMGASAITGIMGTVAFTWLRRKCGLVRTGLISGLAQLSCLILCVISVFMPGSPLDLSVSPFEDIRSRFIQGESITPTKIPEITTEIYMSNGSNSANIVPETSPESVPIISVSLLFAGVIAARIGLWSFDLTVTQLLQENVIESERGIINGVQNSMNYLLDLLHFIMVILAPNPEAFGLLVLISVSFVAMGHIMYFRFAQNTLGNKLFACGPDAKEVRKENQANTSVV
# Experiment: FPN activity assay: ferroportin-GFP internalization/degradation in HEK293 cells
# Type: cell-based
# Parameters: expressed in transfected cells
# Details: Table 6E; ferroportin-GFP internalization/degradation, at least 18 hours incubation; read-out: FPN IC50
# Procedure: Following internalization, the ferroporin protein is degraded.
# A retro inverse peptide is a peptide with a reversed sequence in all D amino acids. An example is that Hy-Glu-Thr-His-NH2 becomes Hy-DHis-DThr-DGlu-NH2. The EC50 of these reference compounds for ferroportin internalization/degradation was determined according to the FPN activity assay described above. These peptides served as control standards.
row,DC50,Structure (SMILES)
1,1 to 10 nM,COC(=O)CC[C@H](NC(=O)CC(C)C)C(=O)N[C@H](C(=O)N[C@@H](Cc1c[nH]cn1)C(=O)N[C@H](C(=O)N1CCC[C@H]1C(=O)N[C@H]1CSSC[C@@H](C(=O)N(C)[C@@H](CCCCNC(=O)CCCCCNC(=O)[C@H](CN)NC(=O)CCCCCCCCCCCCCCCCC(=O)O)C(=O)N[C@H](C(=O)N[C@H](CCCCN)C(N)=O)C(c2ccccc2)c2ccccc2)NC1=O)C(c1ccccc1)c1ccccc1)[C@@H](C)O [compound 207] (Isovaleryl-E(OMe)TH[Dip]PCC[NMeK]([Ahx-Dap-C18 diacid])[Dip][dK]-NH2; disulfide 6-7)

# Same assay, conditions: ferroportin-GFP HEK293 cells, at least 18 hours; read-out: FPN IC50
row,DC50,Structure (SMILES)
1,1 to 10 nM,CCCCCCCCCCCCCCCC(=O)NCCCCCC(=O)NCCCC[C@H](NC(=O)C[C@H](Cc1ccccc1)NC(=O)[C@@H]1CSSC[C@H](NC(=O)CC(C)C)C(=O)N[C@@H]([C@@H](C)O)C(=O)N[C@@H](Cc2c[nH]cn2)C(=O)N[C@@H](C(c2ccccc2)c2ccccc2)C(=O)N2CCC[C@H]2C(=O)N[C@@H](C)C(=O)N[C@@H]([C@@H](C)CC)C(=O)N1)C(=O)N[C@H](CCCCN)C(N)=O [Compd 43] (Isovaleryl-CTH[Dip]PAIC[β3hF]K([Ahx-Palmitoyl])[dK]-NH2; disulfide 1-8)

# Molecular target: T1, ferroportin
# Experiment: T47D cell-based ferroportin internalization assay in presence of mouse serum albumin (MSA)
# Parameters: a human breast carcinoma adherent cell line which endogenously expresses ferroportin; host or cells: T47D
# Details: T47D cells, 0.5% mouse serum albumin, 1 hr incubation
# In short: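 Peptide potency for inducing ferroportin internalization was measured in T47D cells in the presence of serum albumin. Cells grown in RPMI with fetal bovine serum were seeded in 96-well plates at 80-100 k cells per well in 100 ul and rested overnight. Dilution series of test peptides were preincubated 30 min at room temperature, then added to the cells after the medium was aspirated.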
row,IC50,Structure (SMILES)
1,> 500 nM,CCCCCCCCCCCCCCCC(=O)NCCCCCC(=O)NCCCC[C@H](NC(=O)C[C@H](Cc1ccccc1)NC(=O)[C@@H]1CSSC[C@H](NC(=O)CC(C)C)C(=O)N[C@@H]([C@@H](C)O)C(=O)N[C@@H](Cc2c[nH]cn2)C(=O)N[C@@H](C(c2ccccc2)c2ccccc2)C(=O)N2CCC[C@H]2C(=O)N[C@@H](C)C(=O)N[C@@H]([C@@H](C)CC)C(=O)N1)C(=O)N[C@H](CCCCN)C(N)=O [Compd 43] (Isovaleryl-CTH[Dip]PAIC[β3hF]K([Ahx-Palmitoyl])[dK]-NH2; disulfide 1-8)

# Same assay, conditions: T47D internalization assay in presence of mouse serum albumin (MSA); Table 6E
row,IC50,Structure (SMILES)
1,10 to 100 nM,CC(C)CC(=O)N[C@@H](CCC(=O)O)C(=O)N[C@H](C(=O)N[C@@H](Cc1c[nH]cn1)C(=O)N[C@H](C(=O)N1CCC[C@H]1C(=O)N[C@H]1CSSC[C@@H](C(=O)N(C)[C@@H](CCCCNC(=O)COCCOCCNC(=O)COCCOCCNC(=O)[C@H](CN)NC(=O)CCCCCCCCCCCCCCCCC(=O)O)C(=O)N[C@H](CC(=O)N[C@H](CCCCN)C(=O)N(C)[C@@H](CCC(N)=O)C(N)=O)Cc2ccccc2)NC1=O)C(c1ccccc1)c1ccccc1)[C@@H](C)O [compound 251] (Isovaleryl-ETH[Dip]PCC[NMeK]([AEEA-AEEA-Dap-C18 diacid])[β3hF][dK][NMeQ]-NH2; disulfide 6-7)

# Same assay, conditions: Table 6E; T47D internalization assay with MSA
row,IC50,Structure (SMILES)
1,10 to 100 nM,COC(=O)CC[C@H](NC(=O)CC(C)C)C(=O)N[C@H](C(=O)N[C@@H](Cc1c[nH]cn1)C(=O)N[C@H](C(=O)N1CCC[C@H]1C(=O)N[C@H]1CSSC[C@@H](C(=O)N(C)[C@@H](CCCCNC(=O)CCCCCNC(=O)[C@H](CN)NC(=O)CCCCCCCCCCCCCCCCC(=O)O)C(=O)N[C@H](C(=O)N[C@H](CCCCN)C(N)=O)C(c2ccccc2)c2ccccc2)NC1=O)C(c1ccccc1)c1ccccc1)[C@@H](C)O [compound 207] (Isovaleryl-E(OMe)TH[Dip]PCC[NMeK]([Ahx-Dap-C18 diacid])[Dip][dK]-NH2; disulfide 6-7)
2,1 to 10 nM,CCCCCCCCCCCCCCCC(=O)NCCCCCC(=O)NCCCC[C@@H](C(=O)N[C@H](C(=O)N[C@H](CN)C(N)=O)C(c1ccccc1)c1ccccc1)N(C)C(=O)[C@@H]1CSSC[C@H](NC(=O)[C@@H]2CCCN2C(=O)[C@@H](NC(=O)[C@H](Cc2cnc[nH]2)NC(=O)[C@@H](NC(=O)[C@H](CCC(=O)O)NC(=O)CC(C)C)[C@@H](C)O)C(c2ccccc2)c2ccccc2)C(=O)N1 [compound 165] (Isovaleryl-ETH[Dip]PCC[NMeK]([Ahx-Palmitoyl])[Dip][dDap]-NH2; disulfide 6-7)
3,10 to 100 nM,CC(C)CC(=O)N[C@@H](CCC(=O)O)C(=O)N1CC[C@@H](O)[C@H]1C(=O)N[C@@H](Cc1c[nH]cn1)C(=O)N[C@H](C(=O)N1CCC[C@H]1C(=O)N[C@H]1CSSC[C@@H](C(=O)N(C)[C@@H](CCCCNC(=O)CCCCCNC(=O)C[N+](C)(C)CCNC(=O)CCCCCCCCCCCCCCCCC(=O)O)C(=O)N[C@H](C(N)=O)C(c2ccccc2)c2ccccc2)NC1=O)C(c1ccccc1)c1ccccc1 [compound 154] (Isovaleryl-E[Pro(3R-OH)]H[Dip]PCC[NMeK]([Ahx-X1])[Dip]-NH2; disulfide 6-7)
4,10 to 100 nM,CC(C)CC(=O)NC(CCC(=O)O)C(=O)NC(C(=O)NC(Cc1cnc[nH]1)C(=O)NC(C(=O)N1CCCC1C(=O)NC1CSCc2ccc(cc2)CSCC(C(=O)N(C)C(CCCCNC(=O)COCCOCCNC(=O)COCCOCCNC(=O)C(CN)NC(=O)CCCCCCCCCCCCCCCCC(=O)O)C(=O)NC(CC(=O)NC(CCCCN)C(N)=O)Cc2ccccc2)NC1=O)C(c1ccccc1)c1ccccc1)C(C)O (stereo not drawn) [compound 218]
5,10 to 100 nM,CC(C)CC(=O)N[C@@H](CCC(=O)O)C(=O)N[C@H](C(=O)N[C@@H](Cc1cnc[nH]1)C(=O)N[C@H](C(=O)N1CCC[C@H]1C(=O)N[C@H]1CSSC[C@@H](C(=O)N(C)[C@@H](CCCCNC(=O)COCCOCCNC(=O)COCCOCCNC(=O)C[N+](C)(C)CCNC(=O)CCCCCCCCCCCCCCCCC(=O)O)C(=O)N[C@H](CC(=O)N[C@H](CCCCN)C(N)=O)Cc2ccccc2)NC1=O)C(c1ccccc1)c1ccccc1)[C@@H](C)O [compound 159] (Isovaleryl-ETH[Dip]PCC[NMeK]([AEEA-AEEA-X1])[β3hF][dK]-NH2; disulfide 6-7)
